Data reported in ChEMBL document CHEMBL1201862, “PubChem BioAssay data set” (2004).
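Tested at 5 concentrations; 48 h exposure; 96-well plates; endpoints linearly interpolated, else capped at highest concentration. GI50: concentration for 50% inhibition of growth.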 Activity calls are given as the source filed them. No stated cut-off is given here; in the data, active = GI50 up to about 1.1 µM and inactive = higher.

Legend:
Assay in all cases: NCI anticancer screen, dose series, 48 h
UACC-257 = tested on: UACC-257
NCI-H460 = tested on: NCI-H460
SF-539 = tested on: SF-539
OVCAR-4 = tested on: OVCAR-4
SK-MEL-2 = tested on: SK-MEL-2
MOLT-4 = tested on: MOLT-4
KM12 = tested on: KM12
HT-29 = tested on: HT-29
TK-10 = tested on: TK-10
ACHN = tested on: ACHN
K562 = tested on: K562
RPMI-8226 = tested on: RPMI-8226
NCI-H23 = tested on: NCI-H23
HOP-62 = tested on: HOP-62
RXF 393 = tested on: RXF 393
HL-60 = tested on: HL-60
LOX IMVI = tested on: LOX IMVI
NCI-H226 = tested on: NCI-H226

Measured: GI50

c1ccc2c(c1)CCCc1cc3ccccc3nc1-2
inactive: UACC-257 54.8 µM | NCI-H460 > 100 µM | SF-539 > 100 µM | OVCAR-4 68.1 µM | SK-MEL-2 > 100 µM | MOLT-4 57.5 µM | KM12 > 100 µM | HT-29 46.3 µM | TK-10 > 100 µM | ACHN > 100 µM | K562 > 100 µM | RPMI-8226 31 µM | NCI-H23 > 100 µM | HOP-62 > 100 µM

CCOP(=O)(OCC)C1CCCCOC1=O (stereo unspecified)
inactive: UACC-257 > 100 µM | NCI-H460 51.2 µM | SF-539 > 100 µM | OVCAR-4 > 100 µM | SK-MEL-2 > 100 µM | MOLT-4 33 µM | KM12 > 100 µM | RXF 393 > 100 µM | HT-29 > 100 µM | HL-60 > 100 µM | TK-10 > 100 µM | LOX IMVI 19.9 µM | ACHN > 100 µM | K562 44 µM | RPMI-8226 > 100 µM | NCI-H23 > 100 µM | HOP-62 > 100 µM

NC(CCCNCc1ccccc1O)C(=O)O (stereo unspecified)
inactive: UACC-257 > 100 µM | NCI-H460 > 100 µM | SF-539 > 100 µM | OVCAR-4 > 100 µM | SK-MEL-2 > 100 µM | MOLT-4 > 100 µM | KM12 > 100 µM | HT-29 > 100 µM | HL-60 > 100 µM | TK-10 > 100 µM | LOX IMVI > 100 µM | ACHN > 100 µM | K562 > 100 µM | RPMI-8226 > 100 µM | NCI-H226 > 100 µM | NCI-H23 > 100 µM | HOP-62 > 100 µM

COc1cc2c(cc1OC)CC(=O)Nc1cc(OC)c(OC)cc1CC2
inactive: UACC-257 > 53.7 µM | NCI-H460 39.3 µM | SF-539 33.2 µM | OVCAR-4 > 53.5 µM | SK-MEL-2 79.8 µM | MOLT-4 52.5 µM | KM12 43.6 µM | HT-29 37 µM | HL-60 20.8 µM | TK-10 > 77.4 µM | LOX IMVI > 82.4 µM | ACHN > 100 µM | K562 24 µM | RPMI-8226 2.89 µM | NCI-H226 79.1 µM | NCI-H23 > 82.6 µM | HOP-62 55.2 µM

O=C1NC2(CCCCCC2)C2CCCCCCC12O (stereo unspecified)
inactive: UACC-257 > 100 µM | NCI-H460 > 100 µM | SF-539 > 100 µM | OVCAR-4 > 100 µM | SK-MEL-2 > 100 µM | MOLT-4 > 100 µM | KM12 > 100 µM | RXF 393 > 100 µM | HT-29 > 100 µM | HL-60 > 100 µM | TK-10 > 100 µM | LOX IMVI > 100 µM | ACHN > 100 µM | K562 > 100 µM | NCI-H23 > 100 µM | HOP-62 > 100 µM
